For nine compounds, IFN induction and TNF induction results are on record in patent publication US7678918B2, “Intermediates for imidazonaphthyridines” (3M Innovative Properties Company, priority 1997, dated 2010).

One test relates to IFN. Nature of the test: Cytokine Induction in Human Cells: interferon (IFN) secreted by PBMCs, A549/encephalomyocarditis bioassay. It counts as cell-based. Conditions: 18 to 24 hours. The method in brief:
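Human PBMCs from healthy donors at 1.5-2×10^6 cells/mL in RPMI with 10% FBS, exposed to compounds (typically 0.1 to 100 μM, ≤1% DMSO) for 18 to 24 h at 37° C. Secreted IFN measured by A549/encephalomyocarditis virus cytopathic-effect bioassay, in alpha reference units/mL against NIH human leukocyte IFN standard.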

The subject of the next test is TNF. Briefly: Cytokine Induction in Human Cells: tumor necrosis factor (TNF) secreted by PBMCs, ELISA. In kind it is cell-based. Conditions: 18 to 24 hours. A digest of the protocol:
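Human donor PBMCs at 1.5-2×10^6 cells/mL in RPMI with 10% FBS were exposed to compound, generally at 0.1 to 100 μM (≤1% DMSO final), for 18 to 24 h at 37 °C. Secreted TNF in supernatant was measured by ELISA and reported as pg/mL.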
A general note: In an ELISA, binding on a coated surface is turned into a signal by an enzyme label.
Also: call rule not given here.

In the case of `CCCCc1nc2c(N)nc3cccnc3c2n1CCCCNC(=O)CC1CCCC1` [Example 160], the IFN induction result in the test on IFN (Dose Concentration 0.1 μM) is recorded as “+”; in the test with IFN (Dose Concentration 1.0 μM), “+”; in the test on IFN (Dose Concentration 10.0 μM), “+”; in the test on IFN (Dose Concentration 100.0 μM), “−”. The TNF induction entry in the test with TNF (Dose Concentration 0.1 μM) is on record as “−”; in the test with TNF (Dose Concentration 1.0 μM), “+”; in the test on TNF (Dose Concentration 10.0 μM) it was “+”; with TNF (Dose Concentration 100.0 μM), “−”.

For the compound `CCCCc1nc2c(N)nc3cccnc3c2n1CCCCNC(=O)c1cc(C(F)(F)F)cc(C(F)(F)F)c1` [Example 161], the IFN induction result with IFN (Dose Concentration 0.1 μM) is reported as “±”; with IFN (Dose Concentration 1.0 μM), “+”; with IFN (Dose Concentration 10.0 μM), “+”; in the test with IFN (Dose Concentration 100.0 μM), “+”. Further, the TNF induction entry was “−” in the test on TNF (Dose Concentration 0.1 μM), “−” in the test on TNF (Dose Concentration 1.0 μM), “+” with TNF (Dose Concentration 10.0 μM) and “+” in the test on TNF (Dose Concentration 100.0 μM).

With `CCCCc1nc2c(N)nc3cccnc3c2n1CCCCNC(=O)c1cc(OC)c(OC)c(OC)c1` [Example 162], the IFN induction entry with IFN (Dose Concentration 0.1 μM), in the test on IFN (Dose Concentration 1.0 μM), in the test on IFN (Dose Concentration 10.0 μM) and in the test on IFN (Dose Concentration 100.0 μM) was “+” each time. Besides, the TNF induction result in the test on TNF (Dose Concentration 0.1 μM) is recorded as “−”; in the test on TNF (Dose Concentration 1.0 μM) it was “+”; in the test with TNF (Dose Concentration 10.0 μM), “+”; in the test with TNF (Dose Concentration 100.0 μM), “+”.

With `CCCCc1nc2c(N)nc3cccnc3c2n1CCCCNC(=O)c1c(F)c(F)c(F)c(F)c1F` [Example 163], the IFN induction entry in the test with IFN (Dose Concentration 0.1 μM), in the test on IFN (Dose Concentration 1.0 μM), in the test on IFN (Dose Concentration 10.0 μM) and in the test with IFN (Dose Concentration 100.0 μM) was “+” in each case. Besides, the TNF induction entry in the test with TNF (Dose Concentration 0.1 μM) is reported as “−”; in the test with TNF (Dose Concentration 1.0 μM), “+”; with TNF (Dose Concentration 10.0 μM), “+”; in the test on TNF (Dose Concentration 100.0 μM) it was “−”.

`CCCCc1nc2c(N)nc3cccnc3c2n1CCCCNC(=O)c1ccc(F)cc1` [Example 166]: the IFN induction entry in the test with IFN (Dose Concentration 0.1 μM) was “−”; with IFN (Dose Concentration 1.0 μM), “+”; with IFN (Dose Concentration 10.0 μM), “+”; with IFN (Dose Concentration 100.0 μM), “−”. Also, the TNF induction result with TNF (Dose Concentration 0.1 μM) is given as “−”; with TNF (Dose Concentration 1.0 μM) it was “+”; in the test on TNF (Dose Concentration 10.0 μM), “+”; in the test on TNF (Dose Concentration 100.0 μM), “−”.

As for `CCCCc1nc2c(N)nc3cccnc3c2n1CCCCNC(=O)CC(C)(C)C` [Example 172], the IFN induction result in the test with IFN (Dose Concentration 0.1 μM), with IFN (Dose Concentration 1.0 μM), with IFN (Dose Concentration 10.0 μM) and in the test with IFN (Dose Concentration 100.0 μM) was “+” each time. The TNF induction result with TNF (Dose Concentration 0.1 μM) is “−”; in the test on TNF (Dose Concentration 1.0 μM), “+”; in the test with TNF (Dose Concentration 10.0 μM), “+”; in the test on TNF (Dose Concentration 100.0 μM), “+”.

In the case of `CCCCc1nc2c(N)nc3cccnc3c2n1CCCCNC(=O)C1CC1` [Example 173], the IFN induction result in the test on IFN (Dose Concentration 0.1 μM), with IFN (Dose Concentration 1.0 μM), with IFN (Dose Concentration 10.0 μM) and in the test with IFN (Dose Concentration 100.0 μM) was “+” each time. The TNF induction result with TNF (Dose Concentration 0.1 μM) was “−”; in the test on TNF (Dose Concentration 1.0 μM), “+”; in the test on TNF (Dose Concentration 10.0 μM) it was “+”; with TNF (Dose Concentration 100.0 μM) it was “+”.

Take `CCCCc1nc2c(N)nc3cccnc3c2n1CCCCNC(=O)C1CCCC1` [Example 174]: the IFN induction entry in the test on IFN (Dose Concentration 0.1 μM), in the test with IFN (Dose Concentration 1.0 μM), in the test with IFN (Dose Concentration 10.0 μM) and in the test on IFN (Dose Concentration 100.0 μM) was “+” throughout. The TNF induction entry in the test with TNF (Dose Concentration 0.1 μM) is “+”; with TNF (Dose Concentration 1.0 μM), “+”; in the test on TNF (Dose Concentration 10.0 μM) it was “+”; in the test with TNF (Dose Concentration 100.0 μM), “−”.

Take `CCCCc1nc2c(N)nc3cccnc3c2n1CCCCNC(=O)CCC1CCCC1` [Example 175]: the IFN induction result is on record as “−” in the test with IFN (Dose Concentration 0.1 μM), “+” in the test with IFN (Dose Concentration 1.0 μM), “+” in the test with IFN (Dose Concentration 10.0 μM) and “−” with IFN (Dose Concentration 100.0 μM). For the same compound, the TNF induction entry in the test with TNF (Dose Concentration 0.1 μM) is “−”; with TNF (Dose Concentration 1.0 μM) it was “+”; in the test on TNF (Dose Concentration 10.0 μM) it was “+”; in the test on TNF (Dose Concentration 100.0 μM) it was “−”.
